Reference: US8936941B2, “Compositions useful for cancer detection and treatment, a cancer stem cell model, and methods of production and use thereof” (priority 2008, dated 2015)

Experiments:
[1] = test system: miR-144 miRNA; assay: pMiR-144-Luc luciferase reporter gene assay in AsPC-1 cells; type: cell-based, human
Excerpt: Luciferase Reporter Gene Assay: pLet7a-Luc reporter vector contains a let-7a miRNA specific binding site at the 3′ UTR of the firefly (Photinus pyralis) luciferase gene, pMiR-144-Luc reporter vector containing miR-144 miRNA specific binding site at the 3′UTR of the firefly luciferase gene and KRAS-Luc reporter vector containing specific binding sites for let-7 family members at the 3′UTR of the firefly luciferase gene were obtained from Signosis, Inc. (Sunnyvale, Calif.). Human pancreatic cancer cell lines were transfected with the pLet7a-Luc, pMiR-144-Luc and KRAS-Luc reporter vectors separately with Renilla luciferase expressing plasmid pRL-TK (Promega) along with DCAMKL-1, or scrambled siRNA-using siPORT™ NeoFX™ transfection reagent (Ambion, Inc.). Luciferase activity was determined as per the manufacturer's instructions (Dual Luciferase Reporter Assay System; Promega) using a BioTek Synergy HT (Winooski, Vt.) as described herein above. The activity, normalized to Renilla luciferase activity, is presented as relative luciferase units relative to control with ±SEM values. Assays were performed in triplicate wells, and experiments were repeated 3 times.

[2] = test system: HCV subgenomic replicon; assay: HCV replication in GS5 cells (Huh7.5 with HCV subgenomic replicon); type: cell-based, hepatitis C virus; settings: 48 hours
Experimental: FIG. 61 illustrates that DCAMKL-1 is required for the HCV replication. A. siRNA against DCAMKL-1 (Si-DCAMKL1, 50 nM and 100 nM) or scrambled siRNA (SCR, 100 nM) were transfected into GS5 cells. Total RNAs were extracted and subjected to real-time quantitative PCR. The levels of HCV and DCAMKL-1 RNAs were considered arbitrary as one unit in untransfected GS5 cells (Cont). Actin mRNA in each sample was used as internal control for PCR. B. Western blot analysis of siRNAs tranfected and untransfected samples as indicated.
Induction of putative stem cell/pluripotency factors by HCV: Normal adult hepatocytes are fully differentiated cells and lack expression of pluripotency factors. However, these cells can be induced to proliferate rapidly after partial hepatectomy and can also be reprogrammed into stem-like cells by forced expression of a cocktail of transcription factors. Thus, the impact of HCV on expression pattern of stem/progenitor cell markers was investigated in GS5 cells, which are derived from hepatoma cell line (Huh7.5) and support constitutive replication of a subgenomic HCV replicon under G418 selection. The replicon expresses HCV nonstructural proteins NS3 through NS5B of the HCV-1a strain and green florescent protein (GFP)-NS5A chimera. Total lysates from parent Huh7.5 and GS5 cells were subjected to Western blot analysis (FIG. 59).
Putative intestinal stem cell marker DCAMKL1 is required for the HCV replication: The eccentric, punctate staining of HCV replication complexes consisting of most of the nonstructural proteins and cellular factors has been a puzzling question. It is known that these replication complexes associate with microtubules in order to replicate the HCV RNA. The DCAMKL1 protein, which binds and polymerizes tubulin into microtubule filaments, is considered as a putative marker for quiescent stem cells in the intestine, and its expression is increased in cancer stem cells. During confocal microscopy, most DCAMKL1 localization was consistently observed in the area containing replication complexes (indicated by NS5A-GFP) and high concentration of microtubules (FIG. 60). The perinuclear co-localization of DCAMKL1 with the NS5A-GFP (indicated by yellow stain) was also observed.

[3] = test system: let-7a miRNA; assay: pLet7a-Luc luciferase reporter gene assay in HCT116 cells; type: cell-based, human; settings: normalized to Renilla luciferase
Experimental: Luciferase reporter gene assay. pLet7a-Luc reporter vector contains a let-7a miRNA specific binding site at the 3′UTR of the firefly (Photinus pyralis) luciferase gene obtained from Signosis Inc (FIG. 26). HCT116 and SW480 cells were transfected with the pLet7a-Luc reporter vector, Renilla luciferase expressing plasmid pRL-TK (Promega) along with DCAMKL-1 or scrambled siRNA using Transfectol™ (Ambion Inc.). Luciferase activity was determined as per the manufacturer's instructions (Dual-Luciferase Reporter Assay System; Promega) using a Monolight 2010 luminometer (Analytical Luminescence Laboratory, San Diego, Calif.) as described earlier [Stadler et al., 2008; Sossey-Alaoui et al., 1999]. The activity, normalized to Renilla Luciferase activity, is presented as relative luciferase units relative to control with ±SEM values. Assays were performed in triplicate wells and experiments were repeated 3 times.

## si-DCAMKL-1: siRNA targeting the coding region of DCAMKL-1 (NM_004734), sequence GGGAGUGAGAACAAUCUAC (SEQ ID NO:3) (chemistry not given here; listed as Homo sapiens)
[1]
  luciferase activity (miR-144 binding site in 3' UTR): dose-dependent reduction
[2]; Western blot
  NS5B polymerase level: decreases
[2]; siRNA 50 nM and 100 nM
  HCV RNA level: decreases
  expression of DCAMKL1: effectively inhibited
[3]
  luciferase activity (let-7a binding site at 3' UTR): dose dependent reduction
